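Compound exposure: 48 hours, 5 concentrations, 96-well plates. Here, GI50 denotes the concentration required for 50% inhibition of growth.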 Active and inactive are the calls of the source. No stated cut-off is given here; in the data, active = GI50 up to about 1.1 µM and inactive = higher.
What was measured:
Experiment in all cases: NCI-60 cell line screen, 48 h
DLD-1 = test system: DLD-1
DMS-114 = test system: DMS-114
DMS-273 = test system: DMS-273
LXFL 529 = test system: LXFL 529
M19-MEL = test system: M19-MEL
RXF 631 = test system: RXF 631
XF498 = test system: XF498
HOP-18 = test system: HOP-18
SNB-78 = test system: SNB-78

With `COC(=O)C(NC(=O)c1ccccc1)C(c1c(O)cc(O)cc1O)P(=O)(OC)OC` (configuration not stated) the GI50 (DLD-1) was > 100 µM (inactive), the GI50 (DMS-114) was > 100 µM (inactive) and the GI50 (DMS-273) was 42.5 µM (inactive). For the same compound, the GI50 (LXFL 529) was 54 µM (inactive), the GI50 (M19-MEL) was > 100 µM (inactive) and the GI50 (RXF 631) was > 100 µM (inactive). For the same compound, the GI50 (XF498) was > 100 µM (inactive).

With `O=C1C[C@@H]2[C@@H](C=CC23CCCC3)N1O` the GI50 (DLD-1) was > 100 µM (inactive), the GI50 (DMS-114) was > 100 µM (inactive) and the GI50 (DMS-273) was > 100 µM (inactive). For the same compound, the GI50 (HOP-18) was > 100 µM (inactive), the GI50 (LXFL 529) was > 100 µM (inactive) and the GI50 (M19-MEL) was > 100 µM (inactive). For the same compound, the GI50 (SNB-78) was > 100 µM (inactive).

With `N#CC12C3C4CC5C6C4C1C6C(O)(C53)N2Cc1ccccc1` (configuration not stated) the GI50 (DLD-1) was > 100 µM (inactive), the GI50 (DMS-114) was > 100 µM (inactive) and the GI50 (DMS-273) was > 100 µM (inactive). For the same compound, the GI50 (HOP-18) was > 100 µM (inactive), the GI50 (LXFL 529) was > 100 µM (inactive) and the GI50 (RXF 631) was > 100 µM (inactive). The GI50 (XF498) was > 100 µM (inactive).

`CC(C)OP(=O)(OC(C)C)/C(=N/Nc1ccc([N+](=O)[O-])cc1)Nc1ccc(N/C(=N\Nc2ccc([N+](=O)[O-])cc2)P(=O)(OC(C)C)OC(C)C)cc1` was tested, and the GI50 (DLD-1) was 4.72 µM (inactive), the GI50 (DMS-114) was 9.51 µM (inactive) and the GI50 (DMS-273) was 5.58 µM (inactive). The GI50 (LXFL 529) was 19.6 µM (inactive), the GI50 (M19-MEL) was 82.4 µM (inactive) and the GI50 (XF498) was > 100 µM (inactive).

For `CCCCCCCCCCCCCCCCCCOP(=O)([O-])OCC[N+](C)(C)C` [OCTADECYLPHOSPHONOCHOLINE], the GI50 (DLD-1) was 4.7 µM (inactive), the GI50 (DMS-114) was 13.6 µM (inactive) and the GI50 (DMS-273) was 1.74 µM (inactive). The GI50 (HOP-18) was 15.9 µM (inactive), the GI50 (M19-MEL) was 4.24 µM (inactive) and the GI50 (SNB-78) was 10.2 µM (inactive). For the same compound, the GI50 (XF498) was 12.4 µM (inactive).

With `O=S(O)CCCCCSSSCCCCCS(=O)O` the GI50 (DLD-1) was 35.4 µM (inactive), the GI50 (LXFL 529) was 11.4 µM (inactive) and the GI50 (M19-MEL) was 22.1 µM (inactive). For the same compound, the GI50 (SNB-78) was 45.6 µM (inactive) and the GI50 (XF498) was 5.32 µM (inactive).

In the case of `Oc1c(C(Nc2cccc3cccnc23)c2ccccc2)ccc2cccnc12` (configuration not stated), the GI50 (DMS-114) was 2.65 µM (inactive), the GI50 (DMS-273) was 5.16 µM (inactive) and the GI50 (HOP-18) was 4.78 µM (inactive). The GI50 (LXFL 529) was 4.13 µM (inactive) and the GI50 (M19-MEL) was 5.53 µM (inactive).

`Nc1nc(=O)c2c([nH]1)NCC(CNc1ccc(C(=O)N[C@@H](CCC(=O)O)C(=O)O)cc1)N2C=O` (some centres not stated) [LEUCOVORIN CALCIUM] was tested, and the GI50 (DLD-1) was > 125 µM (inactive), the GI50 (DMS-114) was > 125 µM (inactive) and the GI50 (DMS-273) was > 125 µM (inactive). The GI50 (HOP-18) was > 125 µM (inactive), the GI50 (M19-MEL) was > 125 µM (inactive) and the GI50 (SNB-78) was > 125 µM (inactive).

In the case of `C[C@@]12[Se]c3ccccc3[C@]1(C)[Se]c1ccccc12`, the GI50 (DLD-1) was > 100 µM (inactive), the GI50 (DMS-114) was 2.12 µM (inactive) and the GI50 (DMS-273) was 3.61 µM (inactive). The GI50 (HOP-18) was > 100 µM (inactive), the GI50 (LXFL 529) was > 100 µM (inactive) and the GI50 (M19-MEL) was 5.68 µM (inactive).

For `C=C1C(=O)O[C@@H]2[C@H](O)[C@@H](C)[C@@H]3C=CC(=O)[C@@]3(C)[C@H](OC(=O)C=C(C)C)[C@H]12`, the GI50 (DLD-1) was 0.277 µM (active), the GI50 (DMS-114) was 2.4 µM (inactive) and the GI50 (DMS-273) was 1.48 µM (inactive). The GI50 (HOP-18) was 1.67 µM (inactive), the GI50 (M19-MEL) was 1.12 µM (active) and the GI50 (XF498) was 1.24 µM (inactive).

`COC(=O)C1=C(C(=O)OC)C23CC1C1C(C(=O)OC)=C(C(=O)OC)C12C1C=CC3C2C(=O)OC(=O)C21` (configuration not stated) was tested, and the GI50 (DLD-1) was 76.9 µM (inactive), the GI50 (DMS-114) was 26.6 µM (inactive) and the GI50 (DMS-273) was 36.6 µM (inactive). The GI50 (LXFL 529) was 39.6 µM (inactive), the GI50 (M19-MEL) was 50.9 µM (inactive) and the GI50 (RXF 631) was 71.6 µM (inactive). The GI50 (SNB-78) was 24.2 µM (inactive) and the GI50 (XF498) was 45.9 µM (inactive).

With `Nc1ccn(CCO)c(=O)n1` the GI50 (DLD-1) was > 100 µM (inactive), the GI50 (DMS-114) was > 100 µM (inactive) and the GI50 (DMS-273) was > 100 µM (inactive). The GI50 (HOP-18) was > 100 µM (inactive), the GI50 (LXFL 529) was > 100 µM (inactive) and the GI50 (M19-MEL) was > 100 µM (inactive). For the same compound, the GI50 (SNB-78) was > 100 µM (inactive).
